Read-outs that look alike come from different tables or passages of the source.
Experiments:
[1] = test system: osteoclastgenesis; details: literature [2]; cited from earlier work
[2] = test system: human normal lung fibroblasts CCD19Lu; assay: MTT cytotoxicity assay in CCD19Lu cells; assay type: cell-based
Method: (§1) The novel compound was dissolved in DMSO at final concentration of 100 mmol/L and stored at −20° C. Cytotoxicity was assessed using the 3-(4,5-dimethylthiazol-2-yl)-2,5-diphenyltetrazolium bromide assay as described previously. Several kinds of cells were seeded on 96-well plates, namely MCF-7, 4000 cells; HepG2, 4000 cells; HeLa, 3000 cells; A549, 4000 cells; LLC-1, 3000 cells; H1299, 3000 cells; CCD19Lu, 4000 cells per well. After overnight pre-incubation, the cells were exposed to different concentrations of the novel compound (0.039-100 μmol/L) or control compounds 20(S)-Rh2 and 20(R)-Rh2 for 3 days. Subsequently, 10 μL of MTT reagents was added to each well and incubated at 37° C. for 4 hours followed by the addition of 100 μL solubilization buffer (10% SDS in 0.01 mol/L HCl) and overnight incubation. A585 nm was determined from each well the next day. The percentage of viable cells was calculated using the following formula: Cell viability (%)=Atreated/Acontrol×100. Data was obtained from three independent experiments.

[3] = test system: lung cancer cells (LLC-1); assay: MTT cytotoxicity assay in LLC-1 cells; assay type: cell-based, mouse
Method: as §1

[4] = in cell culture; previous studies of the inventors; cited from earlier work
[5] = literature [4]; cited from earlier work
[6] = test system: panel of 7 tumor cell lines and human normal lung fibroblasts; details: previous studies of the inventors, cited from earlier work
[7] = test system: several tumor cell lines; details: literature [2], cited from earlier work
[8] = test system: other five cancer cell lines (MCF-7, HepG2, HeLa, A549, H1299); assay type: cell-based
Method: as §1

[9] = MTT cytotoxicity assay in CCD19Lu cells; assay type: cell-based, human; details: human
Method: as §1

[10] = test system: LLC-1 tumor; assay type: in vivo, male C57BL/6J mice; details: for suppression on the tumor growth: 21-day treatment, vs vehicle
Method: The LLC-1 cells harvested from in vitro culture were adjusted to a concentration of 1.5×10^7/mL and 0.1 mL cell suspension was injected subcutaneously into the dorsal region of the male C57BL/6J mice. Subsequently, when 70% of mice had developed tumor into a volume (length×width^2×0.52) larger than 50 mm^3, the animals were randomly divided into the vehicle control and several treatment groups. The novel compound powder was dissolved with PEG400:ethanol:distilled water in a ratio of 60%:10%:30% (v/v/v), and orally administrated to mice by gavage feeding at doses of 10, 20, 40 and 80 mg/kg/day for 21 consecutive days. Oral administration of 80 mg/kg/day 20(R)-Rh2, 20(S)-Rh2 and 20(S)-Rg3, and 10 mg/kg/day 5-Fu were designed as control groups. In order to make sure all groups were appropriately blended, all the experimental procedures such as subcutaneous tumor cells injection, treatment and tumor size measurement were performed by three individual persons who were blended for animal group identity.

[11] = Acute oral toxicity, OECD Test Guideline 423, 14-day; assay type: in vivo, C57BL/6J mice
Method: The acute oral toxicity of the novel compound was evaluated in line with the Organization for Economic Cooperation and Development (OECD) Guideline for Testing Chemicals—Acute Oral Toxicity—Acute Toxic Class Method (Test Guideline 423, Adopted on 17 Dec. 2001). Based on the result of Example 4, the Test Procedure with a Starting Dose of 2000 mg/kg (Annex 2d of OECD 423) was selected to evaluate the acute toxicity of the novel compound. In the test, 3 female and 3 male C57BL/6J mice (SPF grade) were fasted overnight and then orally administrated by gavage feeding with single dose of the novel compound solution at 2000 mg/kg.

[12] = Sub-chronic lethal dose study, 7-day repeated oral dosing; assay type: in vivo, male C57BL/6J mice; details: 160 and 320 mg/kg/day oral, 7-day treatment
Method: 10 male C57BL/6J mice were divided into two treatment groups, i.e. 160 mg/kg/day and 320 mg/kg/day. The novel compound powder was dissolved with PEG400:ethanol:distilled water in a ratio of 60%:10%:30% (v/v/v), and orally administrated to mice by gavage feeding at doses of 160 and 320 mg/kg/day for 7 consecutive days. The health condition of the animals was monitored and their body weights were recorded during this 7 days treatment duration.

**Q.** For `CC(C)=CCC[C@@](C)(O)[C@H]1CC[C@]2(C)[C@@H]1[C@H](O)C[C@@H]1[C@@]3(C)CC[C@H](O[C@@H]4O[C@H](CO)[C@@H](O)[C@H](O)[C@H]4O)C(C)(C)[C@@H]3CC[C@]12C` [20(R)-Rh2, 20(R)-ginsenoside Rh2], which “osteoclastgenesis inhibition (in words)” value [1] is on record?
**A.** Its value is “selective osteoclastgenesis inhibitor”.

**Q.** What about the “cytotoxicity (in words)” value ([2]; CCD19Lu cells, MTT, 3 days exposure) of the same molecule?
**A.** Its value is “no cytotoxicity”.

**Q.** And the “cytotoxicity (in words)” value ([3]; LLC-1 cells, MTT, 3 days exposure)?
**A.** The value was “no cytotoxicity”.

**Q.** What about the “solubility (in words)” value [4] of the same molecule?
**A.** The value was “poor solubility”.

**Q.** And the “intestinal absorption (in words)” value [5]?
**A.** The value was “lower absorption profiles”.

**Q.** What about the “concentration up to which no cytotoxic effect” value ([6]; in cell culture) of the same molecule?
**A.** The value was over 100 µM.

**Q.** And the “cell cytotoxicity (in words)” value [7]?
**A.** The value was “without any cell cytotoxicity”.

**Q.** What does the source list for `CC(C)=CCC[C@](C)(O)[C@H]1CC[C@]2(C)[C@@H]1[C@H](O)C[C@@H]1[C@@]3(C)CC[C@H](O[C@@H]4O[C@H](CO)[C@@H](O)[C@H](O)[C@H]4O)C(C)(C)[C@@H]3CC[C@]12C` [20(S)-Rh2]?
**A.** IC50 [2]: 80.5 µM; IC50 [3]: 46.5 µM; IC50 ([6]; panel of 7 tumor cell lines and human normal lung fibroblasts, read-out: cytotoxicity, IC50): 45 to 65 µM; IC50 ([7]; several tumor cell lines, read-out: cytotoxicity, IC50): 22 to 50 µM

**Q.** Which results are given for `CC(C)=CCC[C@](C)(O)[C@H]1CC[C@]2(C)[C@@H]1[C@H](O)C[C@@H]1[C@@]3(C)CC[C@H](O[C@@H]4O[C@H](CO)[C@@H](O)[C@H](O)[C@H]4O)C(C)(C)[C@@H]3CC[C@]12C` [Rh2, Ginsenoside Rh2]?
**A.** intestinal absorption (in words) [5]: poor intestinal absorption; permeability (in words) [5]: poor permeability

**Q.** Which results are given for `CC(C)(O)C1CC[C@](C)(C2CC[C@]3(C)C2[C@H](O)CC2[C@@]4(C)CC[C@H](O[C@@H]5OC(CO)[C@@H](O)C(O)C5O)C(C)(C)C4CC[C@]23C)O1` (stereo partly drawn) [novel compound]?
**A.** cytotoxic potency (in words) [8]: dose-dependent cytotoxic potency; IC50 at 3 days [9]: > 100 µM; suppression on the tumor growth ([10]; 10 mg/kg/day oral, P>0.05): 35.24%; suppression on the tumor growth ([10]; 20 mg/kg/day oral, P>0.05): 40.49%; suppression on the tumor growth ([10]; 40 mg/kg/day oral, P<0.05): 44.9%; suppression on the tumor growth ([10]; 80 mg/kg/day oral, P<0.01): 52.04%; adverse impacts on the major organs and body weight ([10]; mouse, in vivo, po): without observable adverse impacts; IC50 ([3]; Mus musculus, LLC1, 72 h, read-out: cytotoxic effect, IC50): 56 µM; Globally Harmonized Classification System (GHS) class ([11]; acute oral toxicity, OECD Test Guideline 423): Class 5 or unclassified; LD50 at 14 days ([11]; both sexes, C57BL/6J, mouse, in vivo, 2000 mg/kg, oral, mice, estimated per OECD Test Guideline 423 criteria): > 5000 mg/kg; body weight and sign of toxicity ([11]; single oral dose 2000 mg/kg, 14 days): no significant drop of body weight and sign of toxicity; animal death ([11]; single oral dose 2000 mg/kg, 14 days, both gender): zero animal death; animal survival [12]: 100%; body weight [12]: no significant drop of body weight

From patent US9051348B2, “Ginsenoside with anti-cancer activity and the preparation method thereof” (Macau University of Science and Technology, priority 2012, dated 2015)
